{"source": "patent US10233182B2", "about": "“Substituted spirocyclic inhibitors of autotaxin” (X-Rx, Inc., priority 2014, dated 2019)", "note": "Structures can show the parent of a compound that is named as a salt.", "data": [{"biological_target": "Autotaxin (Homo sapiens (Human), UniProt Q13822)", "assay": "Autotaxin LPC Cascade Assay", "type": "biochemical", "settings": "Autotaxin 5 nM, LPC 100 μM, choline oxidase/HRP/Ampliflu Red fluorescence read-out, 2% DMSO, RT; read-out: IC50 ATX Activity", "procedure,_shortened": "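Choline liberated from LPC by autotaxin during 1 h, after a 10-min RT compound preincubation, was converted through choline oxidase/HRP to a fluorescent Ampliflu Red product.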", "units": {"IC50": "nM"}, "values": [{"smiles": "Cc1cccc(C(=O)N[C@@H](C(=O)N2CCC3(CC2)COC(=O)N3c2ccccc2)C(C)C)c1", "note": "[Example 217, (R)-3-Methyl-N-(3-methyl-1-oxo-1-(2-oxo-1-phenyl-3-oxa-1,8-diazaspiro[4.5]decan-8-yl)butan-2-yl)benzamide]", "IC50": "≥ 1000"}, {"smiles": "Cc1cc(C(=O)N[C@@H](C(=O)N2CCC3(CC2)C(=O)N(C)CN3c2ccccc2)C(C)C)ccc1F", "note": "[Example 139, (R)-4-Fluoro-3-methyl-N-(3-methyl-1-(3-methyl-4-oxo-1-phenyl-1,3,8-triazaspiro[4.5]decan-8-yl)-1-oxobutan-2-yl)benzamide]", "IC50": "< 500"}, {"smiles": "CC(C)[C@@H](NC(=O)c1cc(C(F)(F)F)ccc1F)C(=O)N1CCC2(CC1)C(=O)N(C)C(=O)N2c1ccc(C(=O)O)cc1", "note": "[Example 223, (R)-4-(8-(2-(2-Fluoro-5-(trifluoromethyl)benzamido)-3-methylbutanoyl)-3-methyl-2,4-dioxo-1,3,8-triazaspiro[4.5]decan-1-yl)benzoic Acid]", "IC50": "< 500"}, {"smiles": "CC(C)[C@@H](NC(=O)c1cc(C(F)(F)F)ccc1F)C(=O)N1CCC2(CC1)C(=O)N(C)C(=O)N2Cc1ccc2c(c1)OCCO2", "note": "[Example 96, (R)—N-(1-(1-((2,3-Dihydrobenzo[b][1,4]dioxin-6-yl)methyl)-3-methyl-2,4-dioxo-1,3,8-triazaspiro[4.5]decan-8-yl)-3-methyl-1-oxobutan-2-yl)-2-fluoro-5-(trifluoromethyl)benzamide]", "IC50": "< 500"}, {"smiles": "CC(C)[C@@H](NC(=O)c1cc(C(F)(F)F)ccc1F)C(=O)N1CCC2(CC1)C(=O)N(C)C(=O)N2[C@@H](C)c1ccccc1", "note": "[Example 78, 2-Fluoro-N—((R)-3-methyl-1-(3-methyl-2,4-dioxo-1-((S)-1-phenylethyl)-1,3,8-triazaspiro[4.5]decan-8-yl)-1-oxobutan-2-yl)-5-(trifluoromethyl)benzamide]", "IC50": "≥ 1000"}, {"smiles": "CC(C)[C@@H](NC(=O)c1cc(C(F)(F)F)ccc1F)C(=O)N1CCC2(CC1)C(=O)N(C)C(=O)N2c1ccc2cn[nH]c2c1", "note": "[Example 53, (R)—N-(1-(1-(1H-Indazol-6-yl)-3-methyl-2,4-dioxo-1,3,8-triazaspiro[4.5]decan-8-yl)-3-methyl-1-oxobutan-2-yl)-2-fluoro-5-(trifluoromethyl)benzamide]", "IC50": "≥ 1000"}, {"smiles": "CC(C)[C@@H](NC(=O)c1cc(OC(F)(F)F)ccc1F)C(=O)N1CCC2(CC1)C(=O)N(C)C(=O)N2c1ccc(-c2nn[nH]n2)cc1", "note": "[Example 225, (R)—N-(1-(1-(4-(2H-Tetrazol-5-yl)phenyl)-3-methyl-2,4-dioxo-1,3,8-triazaspiro[4.5]decan-8-yl)-3-methyl-1-oxobutan-2-yl)-2-fluoro-5-(trifluoromethoxy)benzamide]", "IC50": "< 500"}, {"smiles": "CC(C)[C@@H](NC(=O)c1cc(C(F)(F)F)ccc1F)C(=O)N1CCC2(CC1)C(=O)N(C)C(=O)N2Cc1cccc(S(C)(=O)=O)c1", "note": "[Example 103, (R)-2-Fluoro-N-(3-methyl-1-(3-methyl-1-(3-(methylsulfonyl)benzyl)-2,4-dioxo-1,3,8-triazaspiro[4.5]decan-8-yl)-1-oxobutan-2-yl)-5-(trifluoromethyl)benzamide]", "IC50": "500 to 1000"}, {"smiles": "CCc1ccc(F)c(C(=O)N[C@@H](C(=O)N2CCC3(CC2)C(=O)N(C)CN3c2ccc(C(=O)O)cc2)C(C)C)c1", "note": "[Example 152, (R)-4-(8-(2-(5-Ethyl-2-fluorobenzamido)-3-methylbutanoyl)-3-methyl-4-oxo-1,3,8-triazaspiro[4.5]decan-1-yl)benzoic Acid]", "IC50": "< 500"}, {"smiles": "CC(C)[C@@H](NC(=O)c1cc(Cl)cc(C(F)(F)F)c1)C(=O)N1CCC2(CC1)C(=O)N(C)CN2c1ccc(C(=O)O)cc1", "note": "[Example 160, (R)-4-(8-(2-(3-Chloro-5-(trifluoromethyl)benzamido)-3-methylbutanoyl)-3-methyl-4-oxo-1,3,8-triazaspiro[4.5]decan-1-yl)benzoic Acid]", "IC50": "< 500"}, {"smiles": "CC(C)[C@@H](NC(=O)c1cc(C2CC2)ccc1F)C(=O)N1CCC2(CC1)C(=O)N(C)C(=O)N2c1ccc(C(=O)O)cc1", "note": "[Example 222, (R)-4-(8-(2-(5-Cyclopropyl-2-fluorobenzamido)-3-methylbutanoyl)-3-methyl-2,4-dioxo-1,3,8-triazaspiro[4.5]decan-1-yl)benzoic Acid]", "IC50": "< 500"}, {"smiles": "CCc1ccc(F)c(C(=O)N[C@@H](C(=O)N2CCC3(CC2)C(=O)N(C)CN3c2ccc(OC)cc2)C(C)C)c1", "note": "[Example 202, (R)-5-Ethyl-2-fluoro-N-(1-(1-(4-methoxyphenyl)-3-methyl-4-oxo-1,3,8-triazaspiro[4.5]decan-8-yl)-3-methyl-1-oxobutan-2-yl)benzamide]", "IC50": "< 500"}, {"smiles": "CCc1ccc(F)c(C(=O)N[C@@H](C(=O)N2CCC3(CC2)C(=O)N(C)CN3c2ccccc2)C(C)C)c1", "note": "[Example 144, (R)-5-Ethyl-2-fluoro-N-(3-methyl-1-(3-methyl-4-oxo-1-phenyl-1,3,8-triazaspiro[4.5]decan-8-yl)-1-oxobutan-2-yl)benzamide]", "IC50": "< 500"}, {"smiles": "CC(C)[C@@H](NC(=O)c1cc(C(F)(F)F)ccc1F)C(=O)N1CCC2(CC1)C(=O)N(C)C(=O)N2Cc1cccc(Cl)c1", "note": "[Example 104, (R)—N-(1-(1-(3-Chlorobenzyl)-3-methyl-2,4-dioxo-1,3,8-triazaspiro[4.5]decan-8-yl)-3-methyl-1-oxobutan-2-yl)-2-fluoro-5-(trifluoromethyl)benzamide]", "IC50": "< 500"}, {"smiles": "CC(C)[C@@H](NC(=O)c1cc(C(F)(F)F)ccc1F)C(=O)N1CCC2(CC1)C(=O)N(C)C(=O)N2Cc1ccc2[nH]ncc2c1", "note": "[Example 98, (R)—N-(1-(1-((1H-Indazol-5-yl)methyl)-3-methyl-2,4-dioxo-1,3,8-triazaspiro[4.5]decan-8-yl)-3-methyl-1-oxobutan-2-yl)-2-fluoro-5-(trifluoromethyl)benzamide]", "IC50": "< 500"}, {"smiles": "CCc1ccc(F)c(C(=O)N[C@@H](C(=O)N2CCC3(CC2)C(=O)N(C)C(=O)N3c2ccccc2)[C@H](C)OC)c1", "note": "[Example 37, 5-Ethyl-2-fluoro-N-((2R,3S)-3-methoxy-1-(3-methyl-2,4-dioxo-1-phenyl-1,3,8-triazaspiro[4.5]decan-8-yl)-1-oxobutan-2-yl)benzamide]", "IC50": "< 500"}, {"smiles": "CC(C)[C@@H](NC(=O)c1cc(C(F)(F)F)ccc1F)C(=O)N1CCC2(CC1)C(=O)N(C)C(=O)N2Cc1ccc2nccnc2c1", "note": "[Example 100, (R)-2-Fluoro-N-(3-methyl-1-(3-methyl-2,4-dioxo-1-(quinoxalin-6-ylmethyl)-1,3,8-triazaspiro[4.5]decan-8-yl)-1-oxobutan-2-yl)-5-(trifluoromethyl)benzamide]", "IC50": "< 500"}, {"smiles": "CC(C)[C@@H](NC(=O)c1cc(C(F)(F)F)ccc1F)C(=O)N1CCC2(CC1)C(=O)N(C)C(=O)N2c1cccc(C#N)c1", "note": "[Example 8, (R)—N-(1-(1-(3-Cyanophenyl)-3-methyl-2,4-dioxo-1,3,8-triazaspiro[4.5]decan-8-yl)-3-methyl-1-oxobutan-2-yl)-2-fluoro-5-(trifluoromethyl)benzamide]", "IC50": "< 500"}, {"smiles": "COc1ccc(CN2C(=O)N(C)C(=O)C23CCN(C(=O)[C@H](NC(=O)c2cc(C(F)(F)F)ccc2F)C(C)C)CC3)c(Cl)c1", "note": "[Example 119, (R)—N-(1-(1-(2-Chloro-4-methoxybenzyl)-3-methyl-2,4-dioxo-1,3,8-triazaspiro[4.5]decan-8-yl)-3-methyl-1-oxobutan-2-yl)-2-fluoro-5-(trifluoromethyl)benzamide]", "IC50": "< 500"}, {"smiles": "CC(C)[C@@H](NC(=O)c1cc(OC(F)F)ccc1F)C(=O)N1CCC2(CC1)C(=O)N(C)C(=O)N2c1ccc2[nH]ncc2c1", "note": "[Example 64, (R)—N-(1-(1-(1H-Indazol-5-yl)-3-methyl-2,4-dioxo-1,3,8-triazaspiro[4.5]decan-8-yl)-3-methyl-1-oxobutan-2-yl)-5-(difluoromethoxy)-2-fluorobenzamide]", "IC50": "< 500"}, {"smiles": "CC(C)[C@@H](NC(=O)c1cc(C(F)(F)F)ccc1F)C(=O)N1CCC2(CC1)C(=O)N(C)C(=O)N2c1ccc2[nH]ncc2c1", "note": "[Example 52, (R)—N-(1-(1-(1H-indazol-5-yl)-3-methyl-2,4-dioxo-1,3,8-triazaspiro[4.5]decan-8-yl)-3-methyl-1-oxobutan-2-yl)-2-fluoro-5-(trifluoromethyl)benzamide]", "IC50": "< 500"}, {"smiles": "CC(C)[C@@H](NC(=O)c1cc(C(F)(F)F)ccc1F)C(=O)N1CCC2(CC1)C(=O)N(C)C(=O)N2c1ccc(NC2CNC2)cc1", "note": "[Example 86, (R)—N-(1-(1-(4-(Azetidin-3-ylamino)phenyl)-3-methyl-2,4-dioxo-1,3,8-triazaspiro[4.5]decan-8-yl)-3-methyl-1-oxobutan-2-yl)-2-fluoro-5-(trifluoromethyl)benzamide trifluoroacetic Acid Salt]", "IC50": "≥ 1000"}, {"smiles": "CC(C)[C@@H](NC(=O)c1cc(C(F)(F)F)ccc1F)C(=O)N1CCC2(CC1)C(=O)N(CCN(C)C)C(=O)N2c1ccc(C(=O)O)cc1", "note": "[Example 237, (R)-4-(3-(2-(Dimethylamino)ethyl)-8-(2-(2-fluoro-5-(trifluoromethyl)benzamido)-3-methylbutanoyl)-2,4-dioxo-1,3,8-triazaspiro[4.5]decan-1-yl)benzoic Acid trifluoroacetic Acid Salt]", "IC50": "< 500"}, {"smiles": "CC(C)[C@@H](NC(=O)c1cc(OC(F)(F)F)ccc1F)C(=O)N1CCC2(CC1)C(=O)N(C)C(=O)N2c1ccc2[nH]ncc2c1", "note": "[Example 62, (R)—N-(1-(1-(1H-Indazol-5-yl)-3-methyl-2,4-dioxo-1,3,8-triazaspiro[4.5]decan-8-yl)-3-methyl-1-oxobutan-2-yl)-2-fluoro-5-(trifluoromethoxy)benzamide]", "IC50": "< 500"}, {"smiles": "CN1C(=O)N(Cc2ccc3nccnc3c2)C2(CCN(C(=O)[C@H](NC(=O)c3cc(C(F)(F)F)ccc3F)C3CCCC3)CC2)C1=O", "note": "[Example 112, (R)—N-(1-Cyclopentyl-2-(3-methyl-2,4-dioxo-1-(quinoxalin-6-ylmethyl)-1,3,8-triazaspiro[4.5]decan-8-yl)-2-oxoethyl)-2-fluoro-5-(trifluoromethyl)benzamide]", "IC50": "< 500"}, {"smiles": "CC(C)[C@@H](NC(=O)c1cc(C2CC2)ccc1F)C(=O)N1CCC2(CC1)C(=O)N(C)CN2c1ccc(C(=O)O)cc1", "note": "[Example 153, (R)-4-(8-(2-(5-Cyclopropyl-2-fluorobenzamido)-3-methylbutanoyl)-3-methyl-4-oxo-1,3,8-triazaspiro[4.5]decan-1-yl)benzoic Acid]", "IC50": "< 500"}]}]}
